Results published in patent US6949581B2, “Water-soluble mono-PEGylated tetrapyrrole derivatives for photodynamic therapy and method of production” (CeramOptec Industries, Inc., priority 2003, dated 2005).
Counter-ions that a name gives are not always drawn.

Legend:
[1] = system: HeLa (human cervix carcinoma cells); test: Phototoxicity in HeLa cells under irradiation at 662 nm, MTT assay; assay type: cell-based; settings: 30-minute incubation, 10 J/cm^2 irradiation
Procedure: Illumination was performed at 662 nm (Ceralas PDT laser, BioLitec AG, Germany; 150 mW/cm^2, 5-20 J/cm^2) after a 30-minute incubation period. Cell survival was measured using the MTT assay. Values are expressed as percentages of illuminated, but non-incubated controls. Experiments were performed in octuplets.

[2] = concentrated (>1%) solution cannot be generated by Nakazato technique; cited from earlier work
[3] = 4° C. in the dark, cited from earlier work

Question: What does the source list for “salt of pheophorbide a (5) with N-methyl-D-glucamine”?
Answer: IC50 phototoxicity [1]: 8.0 µg/mL; IC90 phototoxicity [1]: 22.0 µg/mL

Question: Which “concentration of injectable solution in water that can be generated” value [2] does the source give for C=Cc1c(C)c2cc3nc(c4c5[nH]c(cc6nc(cc1[nH]2)C(C)=C6CC)c(C)c5C(=O)[C@@H]4C(=O)OC)[C@@H](CCC(=O)O)[C@@H]3C [sodium salt of pheophorbide a (4), sodium salt of pheophorbide a] here?
Answer: Its value is ≤ 1%.

Question: Which results are given for trisodium lysyl-chlorin p6?
Answer: stable in an aqueous solution ([3]; aqueous solution): ≤ 24 h; stable in solid form ([3]; solid form): up to 4 months
